Results from patent US12503452B2 (Curza Global, LLC, priority 2019, dated 2025).
Counter-ions that a name gives are not always drawn. Like-named read-outs stand apart in the source and are kept apart here.

Tests used:
[1] = target: Rabbit Reticulocyte Lysate (eukaryotic protein synthesis); experiment: Rabbit reticulocyte lysate luciferase assay (inhibition of eukaryotic protein synthesis); type: biochemical; details: read-out: Rabbit reticulocyte IC50 (μM/% inhib.)
Outline: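 Nuclease-treated rabbit reticulocyte lysate translating luciferase control RNA, with complete amino acids, was incubated at 30° C. for 90 minutes with 2-fold serial compound dilutions. Luminescence was measured after adding luciferase reagent. % inhibition was relative to water controls, with no-RNA wells as background.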

E. coli (Ec) = experiment: Broth microdilution minimum inhibitory concentration (MIC); type: cell-based; details: Escherichia coli, read-out: E. coli + bicarb MIC
Outline: (§1)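 CLSI broth microdilution with 8 two-fold compound dilutions in CAMHB, or CAMHB plus sodium bicarbonate (6.25 or 25 mM final) or heat-inactivated human serum (0–50%). Inoculum 5×10^4 CFU/well from 0.5 McFarland cultures grown at 35±2° C; tested in triplicate.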

A. baumannii (Ab) = experiment: as above; type: cell-based; details: Acinetobacter baumannii, read-out: Ab + bicarb MIC
Outline: as §1

P. aeruginosa (Pa) = experiment: as above; type: cell-based; details: Pseudomonas aeruginosa, read-out: Pa MIC + bicarb
Outline: as §1

S. aureus (Sa) = experiment: as above; type: cell-based; details: Staphylococcus aureus, read-out: Sa + bicarb MIC
Outline: as §1

E. faecalis (Ef) = experiment: as above; type: cell-based; details: Enterococcus faecalis, read-out: Ef + bicarb MIC
Outline: as §1

[2] = system: E. coli S30 extract (bacterial protein synthesis); experiment: E. coli S30 extract coupled transcription-translation luciferase assay (inhibition of bacterial protein synthesis); type: biochemical; details: read-out: S30 IC50 (μM/% inhib.)
Outline: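 Cell-free coupled transcription-translation in E. coli S30 circular-DNA extract, with pBESTluc plasmid as template and complete amino acid mix. Eight 2-fold compound dilutions were incubated with the extract 1 h at 37 °C, chilled, then luciferase luminescence was read. % inhibition was taken relative to no-inhibitor wells; no-DNA wells gave background.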

[3] = class by IC50 or % inhibition @ 1 μM
[4] = E. coli, growth medium supplemented with sodium bicarbonate
[5] = A. baumannii, growth medium supplemented with sodium bicarbonate
[6] = P. aeruginosa, growth medium supplemented with sodium bicarbonate
[7] = S. aureus, growth medium supplemented with sodium bicarbonate
[8] = E. faecalis, growth medium supplemented with sodium bicarbonate
[9] = E. coli, growth medium with sodium bicarbonate
[10] = A. baumannii, growth medium with sodium bicarbonate
[11] = P. aeruginosa, growth medium with sodium bicarbonate
[12] = S. aureus, growth medium with sodium bicarbonate
[13] = E. faecalis, growth medium with sodium bicarbonate

Compound	IC50 [1, 3] [µM]	MIC (E. coli (Ec); [4]) [µg/mL]	MIC (A. baumannii (Ab); [5]) [µg/mL]	MIC (P. aeruginosa (Pa); [6]) [µg/mL]	MIC (S. aureus (Sa); [7]) [µg/mL]	MIC (E. faecalis (Ef); [8]) [µg/mL]	IC50 [2, 3] [µM]	MIC (E. coli (Ec); [9]) [µg/mL]	MIC (A. baumannii (Ab); [10]) [µg/mL]	MIC (P. aeruginosa (Pa); [11]) [µg/mL]	MIC (S. aureus (Sa); [12]) [µg/mL]	MIC (E. faecalis (Ef); [13]) [µg/mL]	MIC (E. coli (Ec)) [µg/mL]	MIC (A. baumannii (Ab)) [µg/mL]	MIC (P. aeruginosa (Pa)) [µg/mL]	MIC (S. aureus (Sa)) [µg/mL]	MIC (E. faecalis (Ef)) [µg/mL]	IC50 ([1]; % inhibition @ 1 μM) [µM]	IC50 ([2]; % inhibition @ 1 μM) [µM]
CC(C)(N)C(=O)N1CCN(C(=O)Nc2ccn(-c3ccc(CN[C@H]4CC[C@H](N)CC4)cc3)c(=O)n2)CC1 [Compound 117]	> 1	< 8	> 32	> 32	< 8	< 8	< 0.5												
CC(C)(N)C(=O)N1CCN(C(=O)Nc2ccn(-c3ccc(CCN4CCC[C@@H](CN)C4)cc3)c(=O)n2)CC1 [Compound 25]	> 1	< 8	> 32	> 32	< 8	> 32	0.5 to 1												
CC(C)(N)C(=O)N1CCN(C(=O)Nc2ccn(-c3ccc(CN4CCC(N)CC4)cc3)c(=O)n2)CC1 [Compound 57]	> 1	< 8	> 32	> 32	< 8	8 to 32	< 0.5												
CC(C)(N)CC1(F)CCN(C(=O)Nc2ccn(-c3ccc(CN4CCC(N)CC4)cc3)c(=O)n2)CC1 [Compound 233]	> 1						> 1	< 8	> 32	> 32	< 8	> 32							
CC(C)(N)C(=O)N1CCN(C(=O)Nc2ccn(-c3ccc(CN(CC4CC4)[C@H]4CC[C@H](N)CC4)cc3)c(=O)n2)CC1 [Compound 130]	> 1	< 8	8 to 32	8 to 32	< 8	< 8	< 0.5												
CC(C)(N)C(=O)N1CCN(C(=O)Nc2ccn(-c3ccc(CN4CCC(N)CC4)cc3)c(=O)n2)C(CO)C1 (centres unmarked) [Compound 62]	> 1	< 8	> 32	> 32	> 32	> 32	< 0.5												
CC(C)(N)C(=O)N1CCN(C(=O)Nc2ccn(-c3ccc(CN[C@H]4CC[C@H](N)CC4)c(OC(F)(F)F)c3)c(=O)n2)CC1 [Compound 332, hydrochloride salt]	> 1						< 0.5						< 8	> 32	> 32	8 to 32	8 to 32		
COc1cc(-n2ccc(NC(=O)N3CCN(C(=O)C(C)(C)N)CC3)nc2=O)ccc1CN(CC1CC1)C1CCC(N)CC1 (centres unmarked) [Compound 317, hydrochloride salt]	> 1						< 0.5						< 8	> 32	> 32	< 8	8 to 32		
CC(Cc1ccc(-n2ccc(NC(=O)N3CCN(C(=O)C(C)(C)N)CC3)nc2=O)cc1)N(C)[C@H]1CC[C@H](N)C1 (some centres unmarked) [Compound 163]	> 1						> 1	8 to 32	> 32	> 32	8 to 32	> 32							
CCN(Cc1ccc(-n2ccc(NC(=O)N3CCN(C(=O)CNC)CC3)nc2=O)cc1)C1CCC(N)CC1 (centres unmarked) [Compound 313, hydrochloride salt]	> 1						0.5 to 1						< 8	> 32	> 32	< 8	> 32		
NC1CCCN(CCc2ccc(-n3ccc(NC(=O)N4CCN(C(=O)C5CCCN5)CC4)nc3=O)cc2)CC1 (centres unmarked) [Compound 310, hydrochloride salt]	> 1						0.5 to 1						< 8	> 32	> 32	8 to 32	> 32		
CCN(Cc1ccc(-n2ccc(NC(=O)N3CCN(C(=O)C(C)(C)N)CC3)nc2=O)cc1)[C@H]1CC[C@@H](N)CC1 [Compound 122]	> 1	< 8	> 32	> 32	< 8	< 8	< 0.5												
CN(Cc1ccc(-n2ccc(NC(=O)N3CCN(C(=O)C(C)(C)N)CC3)nc2=O)cc1F)C1CCC(N)CC1 (centres unmarked) [Compound 278]	> 1						< 0.5	< 8	8 to 32	8 to 32	< 8	< 8							
CC(C)CN(Cc1ccc(-n2ccc(NC(=O)N3CCN(C(=O)C(C)(C)N)CC3)nc2=O)cc1)[C@H]1CC[C@H](N)CC1 [Compound 129]	> 1	< 8	< 8	8 to 32	< 8	< 8	< 0.5												
CC(C)(N)C(=O)N1CCN(C(=O)Nc2ccn(-c3ccc(CCN4CC(C5CCNCC5)C4)cc3)c(=O)n2)CC1 [Compound 372]								< 8	> 32	> 32	< 8	> 32						> 1	> 1
CC(CNC1CNC1)Oc1ccc(-n2ccc(NC(=O)N3CCN(C(=O)C(C)(C)N)CC3)nc2=O)cc1 (centres unmarked) [Compound 183]	> 1						> 1	> 32	> 32	> 32	> 32	> 32							
C[C@H]1CN(Cc2ccc(-n3ccc(NC(=O)N4CCN(C(=O)C(C)(C)N)CC4)nc3=O)cc2)CC[C@H]1N [Compound 211]	> 1						0.5 to 1	< 8	> 32	> 32	< 8	8 to 32							
CCC(N)C1CCCN(Cc2ccc(-n3ccc(NC(=O)N4CCN(C(=O)C(C)(C)N)CC4)nc3=O)cc2)C1 (centres unmarked) [Compound 110]	> 1	< 8	> 32	> 32	< 8	8 to 32	< 0.5												
CC(C)(N)C(N1CCN(C(=O)Nc2ccn(-c3ccc(CN4CCC(N)CC4)cc3)c(=O)n2)CC1)C(F)(F)F (centres unmarked) [Compound 291, hydrochloride salt]	> 1						> 1						8 to 32	8 to 32	> 32	< 8	8 to 32		
CC(C)N(Cc1ccc(-n2ccc(NC(=O)N3CCN(C(=O)C(C)(C)N)CC3)nc2=O)cc1)C1CCC(N)CC1 (centres unmarked) [Compound 356]								> 32	> 32	> 32	> 32	> 32						> 1	> 1
CC(C)(N)C(=O)N1CCN(C(=O)Nc2ccn(-c3ccc(CNC4C[C@@H](N)C[C@@H](N)C4)cc3)c(=O)n2)CC1 (some centres unmarked) [Compound 321, hydrochloride salt]	> 1						< 0.5						8 to 32	> 32	> 32	> 32	> 32		
CC(C)(N)C(=O)N1CCN(C(=O)Nc2ccn(-c3ccc(CNC4CCC[C@@H](N)C4)cc3)c(=O)n2)CC1 (mixture of isomers) [Compound 320, hydrochloride salt]	> 1						< 0.5						< 8	> 32	> 32	8 to 32	> 32		
CC(C)(N)C(=O)N1CCN(C(=O)Nc2ccn(-c3ccc(CN4CC(N5CC(N)C5)C4)cc3)c(=O)n2)CC1 [Compound 380]								< 8	> 32	> 32	< 8	8 to 32						> 1	< 0.5
